Test results as given in patent US6878269B2, “Device for body fluid purification and system for body fluid purification” (Kaneka Corporation, priority 1996, dated 2005).

Assays:
[1] = system: β2-microglobulin or chemokines; experiment: Adsorbing ability of immobilized compounds of various log P values; type: binding; details: compound immobilized on carrier
Text: In discovering compounds effective for adsorbing substances related to malady in body fluid, in particular, for adsorbing β2-microglobulin or chemokines, compounds having various log P values have been examined in a state of being immobilized.

[2] = octanol-water system, found value; cited from earlier work

CCCCCCCCCCCCCCCCN [hexadecylamine]
adsorbing ability for β2-microglobulin or chemokines [1]: further enhanced

CCCCN [n-butylamine]
log P [2]: 0.97

CCCCCCCCN [n-octylamine]
adsorbing ability for β2-microglobulin or chemokines [1]: enhanced to a great extent

CCCCCCCCCCCCCCCCCCN [octadecylamine]
adsorbing ability for β2-microglobulin or chemokines (guessed) ([1]; guessed and not tested): equivalent to or better than that of hexadecylamine
